Measurements reported in PubChem BioAssay (NCI).
Values joined by “and” are separate entries in the source; they are usually repeats but may differ in a detail not shown here. Identical values can stand only once.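 Grown in 96-well plates, cells were treated for 48 hours with each compound at five concentrations. Insufficient inhibition: endpoint recorded as highest concentration tested. Abbreviation: GI50, concentration required for 50% inhibition of growth. Definition used: TGI = concentration required for complete inhibition of growth.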

How the values were obtained:
Assay in all cases: NCI anticancer screen, dose series, 48 h
A498 renal = system: A498 renal
COLO 205 colon = system: COLO 205 colon
LOX IMVI melanoma = system: LOX IMVI melanoma
MOLT-4 leukemia = system: MOLT-4 leukemia
NCI-H460 lung = system: NCI-H460 lung
PC-3 prostate = system: PC-3 prostate
SF-539 CNS = system: SF-539 CNS
SK-MEL-28 melanoma = system: SK-MEL-28 melanoma
SK-OV-3 ovarian = system: SK-OV-3 ovarian
T-47D breast = system: T-47D breast

SMILES | GI50 (A498 renal) | TGI (A498 renal) | GI50 (COLO 205 colon) | TGI (COLO 205 colon) | GI50 (LOX IMVI melanoma) | TGI (LOX IMVI melanoma) | GI50 (MOLT-4 leukemia) | TGI (MOLT-4 leukemia) | GI50 (NCI-H460 lung) | TGI (NCI-H460 lung) | GI50 (PC-3 prostate) | TGI (PC-3 prostate) | GI50 (SF-539 CNS) | TGI (SF-539 CNS) | GI50 (SK-MEL-28 melanoma) | TGI (SK-MEL-28 melanoma) | GI50 (SK-OV-3 ovarian) | TGI (SK-OV-3 ovarian) | GI50 (T-47D breast) | TGI (T-47D breast)
COc1cc2c(c(OC)c1OC)-c1c(c3ccc([N+](=O)[O-])cc3c(=O)n1CCCN=[N+]=[N-])C2=O | 11.9 µM | 29.6 µM | > 100 µM | > 100 µM | 28.5 µM | > 100 µM | > 100 µM | > 100 µM | 12.3 µM | > 100 µM | > 100 µM | > 100 µM | 13.5 µM | 43.1 µM | > 100 µM | > 100 µM | 23.1 µM | 55.2 µM | 34.8 µM | > 100 µM
CC(CCC/C=C/CCCN(C)C(=N)N)CC(C)C1OC(=O)C(C)C(O)/C=C/C(C)C(O)C(C)C(O)C(C)C(O)CCCC(O)CC2(O)OC(CC(OC(=O)CC(=O)O)CC(O)CC(O)C(C)C(O)/C=C/C=C/C1C)CC(O)C2O (stereo not given) | 2.44 µM and 10.6 µg/mL | 7.16 µM and 21.3 µg/mL | 1.75 µM and 2.42 µg/mL | 3.33 µM and 10.6 µg/mL | 3.17 µM and 12 µg/mL | 11.3 µM and 29 µg/mL | 2.78 µM and 11.1 µg/mL | 5.88 µM and 28.4 µg/mL | 2.09 µM and 3.95 µg/mL | 3.95 µM and 14.5 µg/mL | 3.09 µM and 4.86 µg/mL | 11.5 µM and 16 µg/mL | 1.73 µM and 2.67 µg/mL | 3.64 µM and 12.5 µg/mL | 2.04 µM and 2.59 µg/mL | 4.05 µM and 8.56 µg/mL | 3 µM and 9.08 µg/mL | 11.7 µM and 18.5 µg/mL | 1.81 µM and 2.63 µg/mL | 4.44 µM and 11.9 µg/mL
COc1ccc(/C=C2\CC(C)CC3C2=NN(C(C)=O)C3c2ccc(OC)c(OC)c2)cc1OC (stereo not given) | 15.9 µM | 31 µM | 11.1 µM | 27.7 µM | 17.7 µM | 34.8 µM | 12.6 µM | 43.6 µM | 15.5 µM | 34.9 µM | 13.8 µM | > 100 µM | 20.2 µM | 37.8 µM | 21.8 µM | 46.9 µM | 31 µM | 75.7 µM | 2.68 µM | 9.42 µM
Cc1nc2cc(NC(=O)CN3CCN(CCN4C(=O)c5cccc6cccc(c56)C4=O)CC3)ccc2s1 | 5.63 µM | 38.3 µM | 4.46 µM | 89.6 µM | 4.15 µM | 15.6 µM | 2.52 µM | 22.2 µM | 3.44 µM | 13.1 µM | 4.5 µM | > 100 µM | 7.59 µM | > 100 µM | 11.1 µM | 23.1 µM | 7.65 µM | > 100 µM | 3.07 µM | 17.9 µM
C/C(=C1/N=C(c2ccccc2)OC1=O)c1cccs1 | – | > 100 µM | – | > 100 µM | – | > 100 µM | – | > 100 µM | – | > 100 µM | – | > 100 µM | – | > 100 µM | – | > 100 µM | – | > 100 µM | – | > 100 µM
COc1ccc(/C=C2\CN(Cc3cn(CCCNc4ccnc5cc(Cl)ccc45)nn3)C/C(=C\c3ccc(OC)cc3)C2=O)cc1 | 2.2 µM | 32.8 µM | 12.2 µM | 26.8 µM | 3.98 µM | 18.5 µM | 2.55 µM | 9.4 µM | 1.86 µM | 3.79 µM | 2.9 µM | 17 µM | 13.9 µM | 26.8 µM | 14 µM | 28 µM | 14.1 µM | 30.6 µM | 21 µM | 51.1 µM
Cn1c([N+](=O)[O-])cnc1/C=C1\Oc2ccc(Cl)cc2C1=O | 1.89 µM | 5.07 µM | 0.8 µM | 3.15 µM | 0.25 µM | 0.825 µM | 0.32 µM | 3.32 µM | 0.352 µM | 2.95 µM | 1.12 µM | 7.1 µM | 1.62 µM | 3.69 µM | 1.14 µM | 5.14 µM | 2.05 µM | 7.24 µM | 4.07 µM | 46.4 µM
COc1cc(C2C3=C(COC3=O)N(CCO)c3cc4c(cc32)CCC4)cc(OC)c1OC (stereo not given) | 0.0722 µM | 1.76 µM | 0.0651 µM | 0.148 µM | 0.166 µM | > 32.5 µM | 0.147 µM | > 32.5 µM | 0.106 µM | 1.1 µM | 0.112 µM | > 32.5 µM | 0.091 µM | 0.663 µM | 1.24 µM | > 32.5 µM | 0.0978 µM | 0.366 µM | > 32.5 µM | > 32.5 µM
Oc1ccc(-c2nc(-c3ccc4oc5ccc(-c6[nH]c(-c7ccc(O)cc7)nc6-c6ccccc6)cc5c4c3)c(-c3ccccc3)[nH]2)cc1 | 12.2 µM | 26 µM | 3.09 µM | 8.18 µM | – | – | 2.34 µM | 7.09 µM | 3.01 µM | 9.85 µM | 2.93 µM | 13.5 µM | 4.17 µM | 21.3 µM | 7.39 µM | 40 µM | 17 µM | 42.4 µM | 4.66 µM | > 100 µM
CNCc1ccc(C)c(NC(=O)c2ccc(Nc3nc(-c4ccccc4)c4ccccc4n3)cc2)c1 | 1.53 µM | 3.04 µM | 1.84 µM | 3.57 µM | 1.67 µM | 3.13 µM | 2.1 µM | 4.76 µM | 1.8 µM | 3.38 µM | 1.92 µM | 4.15 µM | 1.82 µM | 3.46 µM | – | – | 2.18 µM | 4.08 µM | 2.26 µM | 5.59 µM
O=C(CN1C(=O)c2ccccc2C1=O)NC1(C(=O)O)CCCC1 | – | > 100 µM | – | > 100 µM | – | > 100 µM | – | > 100 µM | – | – | – | > 100 µM | – | – | – | > 100 µM | – | > 100 µM | – | > 100 µM
Cc1ccc(S(=O)(=O)NC(CCCCN)C(=O)CCl)cc1 (stereo not given) | – | – | 41.1 µM | > 100 µM | 45.4 µM | > 100 µM | 86.6 µM | > 100 µM | > 100 µM | > 100 µM | 52.6 µM | > 100 µM | 22.3 µM | 53.6 µM | > 100 µM | > 100 µM | > 100 µM | > 100 µM | > 100 µM | > 100 µM
COc1cccc2c1C(=N)c1c(O)c3c(c(O)c1C2=O)C[C@@](O)(C(C)=O)C[C@@H]3OC1CC(N)C(O)C(C)O1 (stereo not given in full) | – | 3.06 µM and 6.52 µM and 1.88 µM | – | 2.29 µM and 4.36 µM and 2.42 µM | – | – | – | – | – | 2.01 µM and 2.11 µM and 0.239 µM | – | 2.98 µM | – | – | – | 5.83 µM and 13.7 µM and 20.1 µM | – | 1.85 µM and 4.8 µM and 13.6 µM | 0.0174 µM | 4.86 µM
